# Columns and labels:
# bedstraw = assay: Test B pre/postemergence bedstraw; type: in vivo, Galium aparine
# In short: (§1)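 Test chemicals in a non-phytotoxic solvent mixture with surfactant were sprayed preemergence onto planted seeds and postemergence onto plants 2 to 18 cm tall (1- to 4-leaf stage). After twelve to sixteen days in a greenhouse, injury was visually rated against untreated controls from 0 (no effect) to 10 (complete control).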
# blackgrass = assay: Test B pre/postemergence blackgrass; type: in vivo, Alopecurus myosuroides
# In short: as §1
# surinam grass = assay: Test B pre/postemergence surinam grass; type: in vivo, Brachiaria decumbens
# In short: as §1
# corn = assay: Test B pre/postemergence corn; type: in vivo, Zea mays
# In short: as §1
# crabgrass = assay: Test B pre/postemergence crabgrass; type: in vivo, Digitaria sanguinalis
# In short: as §1
# giant foxtail = assay: Test B pre/postemergence giant foxtail; type: in vivo, Setaria faberii
# In short: as §1
# morningglory = assay: Test B pre/postemergence morningglory; type: in vivo, Ipomoea hederacea
# In short: as §1
# pigweed = assay: Test B pre/postemergence pigweed; type: in vivo, Amaranthus retroflexus; conditions: for Plant response rating, Redroot pigweed: Postemergence
# In short: as §1
# rape = assay: Test B pre/postemergence rape; type: in vivo, Brassica napus
# In short: as §1
# sugar beet = assay: Test B pre/postemergence sugar beet; type: in vivo, Beta vulgaris; conditions: for Plant response rating, Sugarbeets: Postemergence
# In short: as §1
# wheat = assay: Test B pre/postemergence wheat; type: in vivo, Triticum aestivum; conditions: for Plant response rating, Wheat: Postemergence
# In short: as §1
# wild oat = assay: Test B pre/postemergence wild oat; type: in vivo, Avena fatua; conditions: for Plant response rating, Wild oats: Postemergence
# In short: as §1
# purple nutsedge = assay: Test B pre/postemergence purple nutsedge; type: in vivo, Cyperus rotundus
# In short: as §1
# rice = assay: Test B flood test rice; type: in vivo, Oryza sativa
# In short: (§2)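 Flood test on plants grown to the 2-leaf stage; treated plants kept in greenhouse twelve to sixteen days, then visually rated against controls on a 0 (no effect) to 10 (complete control) scale.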
# smallflower flatsedge = assay: Test B flood test smallflower flatsedge; type: in vivo, Cyperus difformis
# In short: as §2
# bamyardgrass = assay: Test B flood test barnyardgrass; type: in vivo, Echinochloa crus-galli
# In short: as §2
# [1] = Postemergence, Rate 62 g/ha, scale of 0 to 10, 0 is no effect, 10 is complete control
# [2] = Postemergence, Rate 500 g/ha, scale of 0 to 10 where 0 is no effect and 10 is complete control
# [3] = Preemergence, Rate 62 g/ha, scale 0 to 10 (0 no effect, 10 complete control)
# [4] = Preemergence, Rate 125 g/ha, scale of 0 to 10 where 0 is no effect and 10 is complete control
# [5] = Preemergence, Rate 500 g/ha, scale of 0 to 10 where 0 is no effect and 10 is complete control
# [6] = Rate 250 g/ha, Postemergence, scale of 0 to 10 where 0 is no effect and 10 is complete control
# [7] = Postemergence, Rate 125 g/ha, scale of 0 to 10 where 0 is no effect and 10 is complete control
# [8] = Rate 125 g/ha, scale of 0 to 10 where 0 is no effect and 10 is complete control
# [9] = Rate 500 g/ha, scale of 0 to 10 where 0 is no effect and 10 is complete control
# [10] = Rate 250 g/ha, scale of 0 to 10 where 0 is no effect and 10 is complete control
# [11] = Rate 62 g/ha, flood test species, Pre-emergence, visual evaluation after twelve to sixteen days
# [12] = Rate 125 g/ha, under heading Pre-emergence, flood test species, visual evaluation after twelve to sixteen days
# [13] = Rate 250 g/ha, Pre-emergence (flood test species), scale 0 to 10, 0 is no effect, 10 is complete control
# [14] = Rate 500 g/ha, Pre-emergence section of Table B, 0 to 10 scale (0 no effect, 10 complete control)
structure (smiles),measurement,setting,value
CC(C)N(C(=O)n1oc(=O)n(CC2CCC2)c1=O)c1ccccc1 [Compound 580],Bedstraw plant response rating,bedstraw; [1],3
same,"Plant response rating, Bedstraw",bedstraw; [2],9
same,Bedstraw plant response rating,bedstraw; [3],0
same,Bedstraw plant response rating,bedstraw; [4],4
same,Bedstraw plant response rating (0 to 10 scale),"bedstraw; Preemergence, Rate 250 g/ha",6
same,Bedstraw plant response rating,bedstraw; [5],6
same,"Plant response rating, Bedstraw",bedstraw; [6],0
same,Blackgrass plant response rating,blackgrass; [1],2
same,"Plant response rating, Blackgrass",blackgrass; [7],6
same,"Plant response rating, Blackgrass",blackgrass; [2],7
same,Blackgrass plant response rating,blackgrass; [3],0
same,Blackgrass plant response rating,blackgrass; [4],3
same,Blackgrass plant response rating (0 to 10 scale),"blackgrass; Preemergence, Rate 250 g/ha",7
same,Blackgrass plant response rating,blackgrass; [5],7
same,"Plant response rating, Blackgrass",blackgrass; [6],7
same,B. signalgrass plant response rating,surinam grass; [1],0
same,"Plant response rating, B. signalgrass",surinam grass; [7],2
same,"Plant response rating, B. signalgrass",surinam grass; [2],8
same,B. signalgrass plant response rating,surinam grass; [3],2
same,B. signalgrass plant response rating,surinam grass; [4],6
same,"B. signalgrass plant response rating (0 to 10 scale, 0 is no effect, 10 is complete control)","surinam grass; Preemergence, Rate 250 g/ha",6
same,B. signalgrass plant response rating,surinam grass; [5],9
same,"Plant response rating, B. signalgrass",surinam grass; [6],5
same,Corn plant response rating,corn; [1],0
same,"Plant response rating, Corn",corn; [7],0
same,"Plant response rating, Corn",corn; [2],0
same,Corn plant response rating,corn; [3],0
same,Corn plant response rating,corn; [4],0
same,Corn plant response rating (0 to 10 scale),"corn; Preemergence, Rate 250 g/ha",2
same,Corn plant response rating,corn; [5],5
same,"Plant response rating, Corn",corn; [6],0
same,Crabgrass plant response rating,crabgrass; [1],0
same,"Plant response rating, Crabgrass",crabgrass; [7],3
same,Crabgrass plant response rating,crabgrass; [3],6
same,Crabgrass plant response rating,crabgrass; [4],6
same,Crabgrass plant response rating (0 to 10 scale),"crabgrass; Preemergence, Rate 250 g/ha",9
same,Crabgrass plant response rating,crabgrass; [5],9
same,"Plant response rating, Crabgrass",crabgrass; [6],9
same,Giant foxtail plant response rating,giant foxtail; [1],0
same,"Plant response rating, Giant foxtail",giant foxtail; [7],6
same,"Plant response rating, Giant foxtail",giant foxtail; [2],8
same,Giant foxtail plant response rating,giant foxtail; [3],9
same,Giant foxtail plant response rating,giant foxtail; [4],9
same,Giant foxtail plant response rating (0 to 10 scale),"giant foxtail; Preemergence, Rate 250 g/ha",10
same,Giant foxtail plant response rating,giant foxtail; [5],10
same,"Plant response rating, Giant foxtail",giant foxtail; [6],8
same,Morningglory plant response rating,morningglory; [1],7
same,"Plant response rating, Morningglory",morningglory; [7],7
same,"Plant response rating, Morningglory",morningglory; [2],10
same,Morningglory plant response rating,morningglory; [3],0
same,Morningglory plant response rating,morningglory; [4],0
same,Morningglory plant response rating (0 to 10 scale),"morningglory; Preemergence, Rate 250 g/ha",0
same,Morningglory plant response rating,morningglory; [5],0
same,"Plant response rating, Morningglory",morningglory; [6],8
same,"Plant response rating, Redroot pigweed",pigweed; [8],5
same,"Plant response rating, Redroot pigweed",pigweed; [9],9
same,Redroot pigweed plant response rating,pigweed; [3],9
same,Redroot pigweed plant response rating,pigweed; [4],10
same,Redroot pigweed plant response rating (0 to 10 scale),"pigweed; Preemergence, Rate 250 g/ha",10
same,Redroot pigweed plant response rating,pigweed; [5],10
same,"Plant response rating, Redroot pigweed",pigweed; [10],5
same,Rape plant response rating,rape; [1],4
same,"Plant response rating, Rape",rape; [7],6
same,"Plant response rating, Rape",rape; [2],8
same,Rape plant response rating,rape; [3],0
same,Rape plant response rating,rape; [4],3
same,Rape plant response rating (0 to 10 scale),"rape; Preemergence, Rate 250 g/ha",7
same,Rape plant response rating,rape; [5],8
same,"Plant response rating, Rape",rape; [6],7
same,"Plant response rating, Sugarbeets",sugar beet; [8],4
same,"Plant response rating, Sugarbeets",sugar beet; [9],6
same,Sugarbeets plant response rating,sugar beet; [3],0
same,Sugarbeets plant response rating,sugar beet; [4],0
same,Sugarbeets plant response rating (0 to 10 scale),"sugar beet; Preemergence, Rate 250 g/ha",4
same,Sugarbeets plant response rating,sugar beet; [5],5
same,"Plant response rating, Sugarbeets",sugar beet; [10],5
same,"Plant response rating, Wheat",wheat; [8],0
same,"Plant response rating, Wheat",wheat; [9],3
same,Wheat plant response rating,wheat; [3],0
same,Wheat plant response rating,wheat; [4],0
same,Wheat plant response rating (0 to 10 scale),"wheat; Preemergence, Rate 250 g/ha",2
same,Wheat plant response rating,wheat; [5],5
same,"Plant response rating, Wheat",wheat; [10],0
same,"Plant response rating, Wild oats",wild oat; [8],0
same,"Plant response rating, Wild oats",wild oat; [9],7
same,Wild oats plant response rating,wild oat; [3],0
same,Wild oats plant response rating,wild oat; [4],0
same,Wild oats plant response rating (0 to 10 scale),"wild oat; Preemergence, Rate 250 g/ha",2
same,Wild oats plant response rating,wild oat; [5],5
same,"Plant response rating, Wild oats",wild oat; [10],3
same,Nutsedge plant response rating,purple nutsedge; [1],0
same,"Plant response rating, Nutsedge",purple nutsedge; [7],0
same,Nutsedge plant response rating,purple nutsedge; [3],0
same,Nutsedge plant response rating,purple nutsedge; [4],0
same,Nutsedge plant response rating (0 to 10 scale),"purple nutsedge; Preemergence, Rate 250 g/ha",0
same,Nutsedge plant response rating,purple nutsedge; [5],5
same,"Plant response rating, Rice (0 to 10 scale, 0 is no effect, 10 is complete control)",rice; [11],0
same,"Rice plant response rating (0 to 10 scale, 0 is no effect, 10 is complete control)",rice; [12],0
same,Rice plant response rating,rice; [13],0
same,Rice plant response rating,rice; [14],0
same,"Plant response rating, S. Flatsedge (0 to 10 scale, 0 is no effect, 10 is complete control)",smallflower flatsedge; [11],0
same,"S. Flatsedge plant response rating (0 to 10 scale, 0 is no effect, 10 is complete control)",smallflower flatsedge; [12],0
same,S. Flatsedge plant response rating,smallflower flatsedge; [13],0
same,S. Flatsedge plant response rating,smallflower flatsedge; [14],0
same,"Plant response rating, Barnyardgrass (0 to 10 scale, 0 is no effect, 10 is complete control)",bamyardgrass; [11],0
same,"Barnyardgrass plant response rating (0 to 10 scale, 0 is no effect, 10 is complete control)",bamyardgrass; [12],0
same,Barnyardgrass plant response rating,bamyardgrass; [13],0
same,Barnyardgrass plant response rating,bamyardgrass; [14],0
